Experiments:
S. aureus Newman [1] = assay: fitness (endpoint OD595 vs no drug) (fraction); higher = more growth
Procedure, shortened: (§1)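 With the first reading as background, OD595 was measured every 30 min for 14 h in 384-well plates kept at 37 °C and inoculated at OD595 0.01. TSB, LB Lennox or CY was the medium. Fitness is the optical density at the transition into stationary phase divided by the robust mean of no-drug control wells, with a cap of 1.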

S. pneumoniae D39V [2] = assay: as above
Procedure, shortened: as §1

B. subtilis 168 [3] = assay: as above
Procedure, shortened: as §1

S. aureus DSM 20231 [4] = assay: as above
Procedure, shortened: as §1

S. aureus Newman [5] = assay: Bliss interaction score (quartile over a dose matrix) (fitness difference); higher = more antagonism (negative = synergy)
Procedure, shortened: (§2)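 Each plate was normalised to the robust mean of its own no-drug wells, using OD595 at entry into stationary phase, with values capped at 1. This normalised growth is the fitness value. The Bliss score is the difference between observed and product-expected fitness, with single-drug fitness inferred from the combination data and quartiles taken over technical, biological and donor/recipient replicates.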

S. pneumoniae D39V [6] = assay: as above
Procedure, shortened: as §2

B. subtilis 168 [7] = assay: as above
Procedure, shortened: as §2

S. aureus DSM 20231 [8] = assay: as above
Procedure, shortened: as §2
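Wherever Bliss interaction score (quartile over a dose matrix) is given: first quartile when negative (synergy) and third quartile when positive (antagonism).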

C[n+]1ccc(-c2cc[n+](C)cc2)cc1 [Paraquat] + CN(N=O)C(=O)N[C@@H](C=O)[C@@H](O)[C@H](O)[C@H](O)CO [Streptozotocin]
fitness
Settings	first compound 1.25 µg/mL	first compound 1.5 µg/mL	first compound 2.5 µg/mL	first compound 3 µg/mL	first compound 5 µg/mL	first compound 6 µg/mL
S. aureus DSM 20231 [4], partner 0.15 µg/mL	0.865	–	0.835	–	0.774	–
S. aureus DSM 20231 [4], partner 0.3 µg/mL	0.795	–	0.842	–	0.758	–
S. aureus DSM 20231 [4], partner 0.6 µg/mL	0.679	–	0.689	–	0.636	–
S. aureus Newman [1], partner 0.15 µg/mL	0.781	–	0.769	–	0.727	–
S. aureus Newman [1], partner 0.3 µg/mL	0.66	–	0.654	–	0.637	–
S. aureus Newman [1], partner 0.6 µg/mL	0.523	–	0.536	–	0.508	–
S. pneumoniae D39V [2], partner 1.2 µg/mL	–	0.989	–	0.983	–	0.969
S. pneumoniae D39V [2], partner 2.4 µg/mL	–	0.97	–	0.926	–	0.977
S. pneumoniae D39V [2], partner 4.8 µg/mL	–	0.944	–	0.955	–	0.933

fitness, B. subtilis 168 [3], one replicate
Settings	first compound 1.25 µg/mL	first compound 2.5 µg/mL	first compound 5 µg/mL
partner 0.15 µg/mL	≥ 1	≥ 1	0.845
partner 0.3 µg/mL	≥ 1	0.964	0.851
partner 0.6 µg/mL	0.945	0.956	0.776

Settings	Bliss interaction score
B. subtilis 168 [7]	0.0356
S. aureus DSM 20231 [8]	-0.0445
S. aureus Newman [5]	-0.0522
S. pneumoniae D39V [6]	0.0357

C[n+]1ccc(-c2cc[n+](C)cc2)cc1 [Paraquat] + CN[C@@H]1[C@H](O)[C@H](NC)[C@H]2O[C@@]3(O)C(=O)C[C@@H](C)O[C@H]3O[C@@H]2[C@H]1O [Spectinomycin]
fitness
Settings	first compound 1.25 µg/mL	first compound 1.5 µg/mL	first compound 2.5 µg/mL	first compound 3 µg/mL	first compound 5 µg/mL	first compound 6 µg/mL
B. subtilis 168 [3], partner 2 µg/mL	0.97	–	0.989	–	0.902	–
B. subtilis 168 [3], partner 4 µg/mL	0.986	–	0.964	–	0.847	–
B. subtilis 168 [3], partner 8 µg/mL	0.877	–	0.882	–	0.847	–
S. aureus DSM 20231 [4], partner 4 µg/mL	0.946	–	0.909	–	0.844	–
S. aureus DSM 20231 [4], partner 8 µg/mL	0.913	–	0.844	–	0.817	–
S. aureus DSM 20231 [4], partner 16 µg/mL	0.837	–	0.874	–	0.758	–
S. aureus Newman [1], partner 4 µg/mL	0.857	–	0.85	–	0.825	–
S. aureus Newman [1], partner 8 µg/mL	0.872	–	0.825	–	0.906	–
S. aureus Newman [1], partner 16 µg/mL	0.89	–	0.849	–	0.833	–
S. pneumoniae D39V [2], partner 4 µg/mL	–	0.964	–	0.976	–	0.995
S. pneumoniae D39V [2], partner 8 µg/mL	–	0.958	–	0.969	–	0.951

fitness, one replicate
Settings	first compound 1.25 µg/mL	first compound 1.5 µg/mL	first compound 2.5 µg/mL	first compound 3 µg/mL	first compound 5 µg/mL	first compound 6 µg/mL
S. aureus DSM 20231 [4], partner 32 µg/mL	0.669	–	0.713	–	0.735	–
S. aureus DSM 20231 [4], partner 64 µg/mL	0.0748	–	0.0594	–	0.0636	–
S. aureus Newman [1], partner 32 µg/mL	0.62	–	0.6	–	0.563	–
S. aureus Newman [1], partner 64 µg/mL	0.0529	–	0.0827	–	0.106	–
S. pneumoniae D39V [2], partner 16 µg/mL	–	0.851	–	0.856	–	0.913

Settings	Bliss interaction score
B. subtilis 168 [7]	0.0537
S. aureus DSM 20231 [8]	-0.046
S. aureus Newman [5]	0.0596
S. pneumoniae D39V [6]	0.0349

Reference: the supplement of paper PMC10627819
